Structures are written as SMILES.

This assay deals with T1, N-formyl peptide receptor 2 (Homo sapiens, UniProt P25090).
T1 sequence (P25090 whole entry): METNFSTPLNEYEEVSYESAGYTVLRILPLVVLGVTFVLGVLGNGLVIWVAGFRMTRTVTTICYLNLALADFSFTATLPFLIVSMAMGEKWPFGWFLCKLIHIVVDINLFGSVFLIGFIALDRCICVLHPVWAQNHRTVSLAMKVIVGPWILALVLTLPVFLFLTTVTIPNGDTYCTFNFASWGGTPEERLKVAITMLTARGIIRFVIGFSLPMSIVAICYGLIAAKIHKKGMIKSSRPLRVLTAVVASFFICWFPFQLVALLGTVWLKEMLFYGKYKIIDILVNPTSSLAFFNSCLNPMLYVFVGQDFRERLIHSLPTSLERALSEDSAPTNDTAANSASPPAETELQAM
The assay can be described thus: Agonist activity at human FPR2 expressed in forskolin/IBMX-treated CHO cells incubated for 30 mins by HTRF HiRange cAMP assay. The assay is classed as functional, cell-based.
Turning to `CN(C)[C@H]1CN(c2ccc(N3CC[C@@H](NC(=O)Nc4ccc(Cl)cc4F)C3=O)c(F)c2F)C[C@H]1F`, a half-maximal effect (EC50) was put at 0.71 nM. The same measure for `O=C(Nc1ccc(Cl)cc1F)N[C@@H]1CCN(c2ccc(N3CCC(CO)C3)c(F)c2F)C1=O` (stereo partly specified): 0.74 nM; for `O=C(Nc1ccc(Cl)cc1F)N[C@@H]1C[C@@H](CO)N(c2ccc(N3CCC(C(F)(F)F)C3)c(F)c2F)C1=O` (stereo partly specified): 0.14 nM. The same measure for `CN(C)[C@@H]1CCN(c2ccc(N3CC[C@@H](NC(=O)Nc4ccc(C(F)(F)F)cc4F)C3=O)c(F)c2F)C1`: 0.1 nM; for `CC(C)(O)C1CCCN1c1cc(F)c(N2CCC(NC(=O)Nc3ccc(Cl)cc3F)C2=O)c(F)c1` (stereo unspecified): 0.51 nM. The same measure for `O=C(Nc1ccc(Cl)cc1F)N[C@@H]1C[C@@H](CO)N(c2ccc(N3CCC(C(F)F)C3)c(F)c2F)C1=O` (stereo partly specified): 0.7 nM.

The term EC50 denotes the concentration that produces a half-maximal response. Read a low EC50 as higher potency in that assay.

Values taken from ChEMBL document CHEMBL6103557, “Novel Pyrrolidinone Urea Compounds as FPR2 Agonists for Treating Atherosclerosis and Heart Failure” (ACS Med Chem Lett, 2024).
